From ChEMBL document CHEMBL4118089, “Pyrazine Analogs for the Treatment of Protozoal Infections” (ACS Med Chem Lett, 2017)

What was measured:
Plasmodium falciparum [1] = test: Antiplasmodial activity against Plasmodium falciparum infected in mouse; type: functional
Plasmodium falciparum [2] = test: Antiplasmodial activity against Plasmodium falciparum; type: functional, organism-based

Row | Structure (SMILES) | ED90 (Plasmodium falciparum [1]) [mg/kg] | IC50 (Plasmodium falciparum [2]) [nM]
1 | Cc1cncc(-c2cncc(-c3ccc(C(=O)N4CCNCC4)cc3)n2)c1 | 2.2 | 35
2 | O=C(c1ccc(-c2cncc(-c3cncc(F)c3)n2)cc1)N1CCNCC1 | 1.5 | 25
